Reference: ChEMBL document CHEMBL1155575, “Kirkinine, a new daphnane orthoester with potent neurotrophic activity from Synaptolepis kirkii” (2000)

What was measured:
Type in all cases: functional, Gallus gallus
[1] = Neurotrophic activity against chick embryo dorsal root ganglion assessed as neuronal viability at 700 nM after 2 days by Calcein-AM assay
[2] = Neurotrophic activity against chick embryo dorsal root ganglion assessed as neuronal viability at 7000 nM after 2 days by Calcein-AM assay
[3] = Neurotrophic activity against chick embryo dorsal root ganglion assessed as neuronal viability at 70 nM after 2 days by Calcein-AM assay

## C=C(C)[C@@]12O[C@@]3(/C=C/CCCCCCCCCCCCC)O[C@@H]1[C@@H]1[C@@H]4O[C@]4(CO)[C@@H](O)[C@]4(O)C(=O)C(C)=C[C@H]4[C@@]1(O3)[C@H](C)[C@H]2OC(C)=O [KIRKININE]
[1]
  Activity: 103%
[2]
  Activity: 142%
[3]
  Activity: 57%
